Measured values: PMC12750270, “Design and Preclinical Evaluation of a ^68Ga-Labeled Macrocyclic Peptide PET Probe Targeting Transferrin Receptor 1 in Colorectal Cancer” (ACS Omega, 2025)

Assays:
human TfR1 = molecular target: T1, human TfR1 (Homo sapiens, UniProt P02786); test: Surface plasmon resonance (SPR) binding affinity assay, Biacore 8K; conditions: recombinant human TfR1-Fc immobilized, read-out: association rate constant (Ka)
T1 construct: Fc; purchased Acro Biosystems TFR-H5264
Protocol: 1 (A) Synthetic scheme for^68 Ga-NOTA-TR01; (B) ESI-MS analysis of TR01; (C) Binding response (nm) between human TfR1 and varying concentrations (62.5–1,000 nM) of TR01; (D, E) Stability assessment of ^68 Ga-NOTA-TR01 in PBS and serum at 37 °C, measured by radio-HPLC.
SPR was employed to quantify the binding interaction between TR01 and TfR1.
The binding affinity of NOTA-TR01 to human TfR1 was evaluated by surface plasmon resonance (SPR) using a Biacore 8K system (Cytiva, USA) at Nanjing Genscript Probio. Recombinant human TfR1-Fc protein (TFR-H5264, Acro Biosystems) was immobilized on the sensor chip for kinetic analysis. The assay was performed under acidic conditions (pH 2.0) using a running buffer containing […]. Real-time binding data were collected at a 1:1 ligand-to-analyte ratio. The equilibrium dissociation constant (KD) was calculated by globally fitting the association and dissociation curves.

physchem = type: physicochemical
Protocol: The molar activity was determined to be greater than 20 GBq/μmol. The log P was calculated as −1.709 ± 0.121 (n = 6), indicating a hydrophilic profile.
The lipophilicity of ^68Ga-NOTA-TR01 was determined via a standard octanol–water partition method. A solution of ^68Ga-NOTA-TR01 [5 μL, 0.74 MBq in phosphate-buffered saline (PBS)] was mixed with 0.5 mL n-octanol and 0.495 mL PBS. The biphasic system was vortexed for 3 min and centrifuged at 4,000 rpm for 5 min to achieve phase separation. Aliquots (100 μL) from each layer were sampled, and radioactivity was measured using a γ-counter. The log P was calculated using the formula: log P = log (cpm_octanol/cpm_PBS).

[1] = type: physicochemical; conditions: 37 °C, 24 h, ∼3.7 MBq in 200 μL, radio-HPLC
Protocol: Collectively, these findings confirmed the suitability of ^68Ga-NOTA-TR01 for further preclinical applications.
[…] At each time point, radiochemical integrity was assessed via radio-HPLC by comparing the retention time of the incubated samples with that of a nonincubated control.

HT29 cells (TfR1 high) = test: Cellular binding/blocking assay in HT29 cells; type: cell-based, human; conditions: for cellular binding: HT29, 37 °C, 37 kBq, γ-counter, triplicate
Protocol: (§1) The percentage of added dose per 5 × 10^5 cells (%AD/5 × 10^5 cells) was as follows: at 30 min: 5.44 ± 0.12% (HT29) vs 2.63 ± 0.09% (LOVO), at 60 min: 6.36 ± 0.05% (HT29) vs 3.19 ± 0.23% (LOVO), at 120 min: 9.56 ± 0.17% (HT29) vs 4.51 ± 0.22% (LOVO).
(§2) The cell-specific binding of ^68Ga-NOTA-TR01 was evaluated in HT29 and LOVO cells. Cells were seeded in 12-well plates (5 × 10^5 cells/well) and cultured for 24 h under standard conditions (37 °C, 5% CO2). After washing with cold PBS, cells were incubated with 1 mL serum-free medium containing ^68Ga-NOTA-TR01 (37 kBq, ∼[…] corresponding to approximately 0.4 pmol of peptide). For blocking studies, parallel wells were pretreated with a 1,000-fold molar excess (3.3 nmol, 1 μg) of unlabeled TR01 peptide. Cellular binding was assessed at 0.5, 1, 2, and 4 h postincubation. Following incubation, cells were washed twice with ice-cold PBS, lysed in 1 M NaOH, and the associated radioactivity was measured using a γ-counter. Radioactivity data were corrected for decay using the ^68Ga decay constant (λ = 0.00876 min^– 1). Each condition was measured in triplicate for statistical accuracy.

LOVO cells (TfR1 low) = test: Cellular binding assay in LOVO cells; type: cell-based, human; conditions: 37 °C, 37 kBq, γ-counter, triplicate
Protocol: as §1, §2

in vivo = test: in vivo; set-up: species or system BALB/c nude mice; conditions: BALB/c nude, mouse, iv, total radioactivity
Protocol: Three mice were included at each time point; %ID/g is the percentage of injected dose per gram of tissue.
Xenograft tumor models were established by subcutaneously injecting 1 × 10^7 LOVO or HT29 cells (in 100 μL PBS) into the right flank of 5–6-week-old BALB/c nude mice (purchased from Hangzhou Ziyuan Experimental Animal Technology). Tumor growth was monitored by caliper measurement, and imaging experiments were initiated once tumors reached a volume of 100–300 mm^3. All animal procedures were conducted in accordance with the institutional guidelines of the Animal Care and Use Committee at Soochow University.
A comparative biodistribution study was conducted in BALB/c nude mice (n = 3 per group), each intravenously injected with ^68Ga-NOTA-TR01 (1.85 ± 0.49 MBq, corresponding to ∼0.15 nmol peptide, in 100 μL saline). At 30-, 60-, and 120 min postinjection, mice were euthanized for terminal blood collection and organ harvesting. For blocking studies, an additional cohort was sacrificed at 60 min following coinjection with cold NOTA-TR01 (300 μg, ∼0.1 μmol per mouse). Excised tissues were perfused three times with PBS to remove residual blood, weighed, and their radioactivity quantified using a γ-counter. The biodistribution of the radiotracer was expressed as %ID/g. Tumor-to-background ratios (TBRs) were calculated to assess tracer specificity.

T1 sequence (P02786 whole entry): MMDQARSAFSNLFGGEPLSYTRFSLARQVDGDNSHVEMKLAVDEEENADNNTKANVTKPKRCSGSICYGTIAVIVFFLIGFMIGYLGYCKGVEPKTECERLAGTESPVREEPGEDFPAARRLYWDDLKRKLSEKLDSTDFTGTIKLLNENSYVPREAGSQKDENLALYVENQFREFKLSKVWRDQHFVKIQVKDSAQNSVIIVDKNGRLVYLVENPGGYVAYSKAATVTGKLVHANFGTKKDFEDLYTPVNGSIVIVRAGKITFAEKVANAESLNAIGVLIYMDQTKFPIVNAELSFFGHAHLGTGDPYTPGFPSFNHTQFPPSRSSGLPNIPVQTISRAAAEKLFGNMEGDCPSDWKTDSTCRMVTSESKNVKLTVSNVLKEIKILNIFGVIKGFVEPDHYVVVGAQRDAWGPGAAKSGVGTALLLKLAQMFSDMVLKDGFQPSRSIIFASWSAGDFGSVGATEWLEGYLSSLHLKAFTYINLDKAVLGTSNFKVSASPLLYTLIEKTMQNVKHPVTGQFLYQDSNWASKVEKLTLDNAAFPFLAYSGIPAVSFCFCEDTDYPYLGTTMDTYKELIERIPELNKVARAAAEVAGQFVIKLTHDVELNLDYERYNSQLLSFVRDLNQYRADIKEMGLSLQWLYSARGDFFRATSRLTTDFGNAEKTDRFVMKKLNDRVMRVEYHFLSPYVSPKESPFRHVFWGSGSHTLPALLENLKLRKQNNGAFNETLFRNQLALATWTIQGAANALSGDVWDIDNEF

kon (human TfR1) [M⁻¹ s⁻¹] | Compound | logD (physchem) | radiochemical integrity after incubation in PBS [1] [%] | cellular binding (HT29 cells (TfR1 high); 30 min) [%AD/5 × 10^5 cells] | cellular binding (HT29 cells (TfR1 high); 60 min) [%AD/5 × 10^5 cells] | cellular binding (HT29 cells (TfR1 high); 120 min) [%AD/5 × 10^5 cells] | cellular binding, blocking group (HT29 cells (TfR1 high); HT29, preincubation with 1,000-fold molar excess of unlabeled TR01, 30 min) [%] | cellular binding, blocking group (HT29 cells (TfR1 high); HT29, preincubation with 1,000-fold molar excess of unlabeled TR01, 60 min) [%] | cellular binding, blocking group (HT29 cells (TfR1 high); HT29, preincubation with 1,000-fold molar excess of unlabeled TR01, 120 min) [%] | inhibition of cell binding by cold peptide (HT29 cells (TfR1 high); HT29 cells, cold peptide) | cellular binding (LOVO cells (TfR1 low); 30 min) [%AD/5 × 10^5 cells] | cellular binding (LOVO cells (TfR1 low); 60 min) [%AD/5 × 10^5 cells] | cellular binding (LOVO cells (TfR1 low); 120 min) [%AD/5 × 10^5 cells] | tissue to tissue ratio at 2 h (in vivo)
77300 | CC[C@H](C)[C@@H]1NC(=O)[C@H](Cc2ccc(O)cc2)NC(=O)[C@H](Cc2ccc(O)cc2)NC(=O)[C@H](CC(N)=O)NC(=O)[C@H](Cc2c[nH]c3ccccc23)NC(=O)[C@H](C(C)C)NC(=O)[C@H](Cc2ccccc2)NC(=O)[C@H](C(C)C)NC(=O)[C@H](C)NC(=O)CSC[C@@H](C(=O)NCCOCCOCCOCCOCCOCCOCCOCCOCCOCCOCCOCCOCCC(=O)N[C@@H](CCCCNC(=O)CN2CCN(CC(=O)O)CCN(CC(=O)O)CC2)C(=O)O)NC(=O)[C@H](Cc2ccc(O)cc2)N(C)C(=O)[C@H](Cc2ccc(O)cc2)NC(=O)[C@H](CCCNC(=N)N)NC(=O)[C@H](CCCNC(=N)N)NC(=O)[C@H]([C@@H](C)CC)NC1=O [NOTA-TR01, cyclo(Ac-Ala-Val-Phe-Val-Trp-Asn-Tyr-Tyr-Ile-Ile-Arg-Arg-Tyr-NMe-Tyr-Cys)-PEG12-Lys-NOTA] | – | – | – | – | – | – | – | – | – | – | – | – | –
– | CC[C@H](C)[C@@H]1NC(=O)[C@H](Cc2ccc(O)cc2)NC(=O)[C@H](Cc2ccc(O)cc2)NC(=O)[C@H](CC(N)=O)NC(=O)[C@H](Cc2c[nH]c3ccccc23)NC(=O)[C@H](C(C)C)NC(=O)[C@H](Cc2ccccc2)NC(=O)[C@H](C(C)C)NC(=O)[C@H](C)NC(=O)CSC[C@@H](C(=O)NCCOCCOCCOCCOCCOCCOCCOCCOCCOCCOCCOCCOCCC(=O)N[C@@H](CCCCNC(=O)CN2CCN(CC(=O)O)CCN(CC(=O)O)CC2)C(=O)O)NC(=O)[C@H](Cc2ccc(O)cc2)N(C)C(=O)[C@H](Cc2ccc(O)cc2)NC(=O)[C@H](CCCNC(=N)N)NC(=O)[C@H](CCCNC(=N)N)NC(=O)[C@H]([C@@H](C)CC)NC1=O [^68Ga-NOTA-TR01, metal not drawn] | -1.71 ± 0.121 | > 98 | 5.44 ± 0.12 | 6.36 ± 0.05 | 9.56 ± 0.17 | 1.58 ± 0.06 | 1.34 ± 0.29 | 1.27 ± 0.09 | over 85% | 2.63 ± 0.09 | 3.19 ± 0.23 | 4.51 ± 0.22 | > 7
